Measurements: patent US6479548B2, “Substituted stilbenes as glucose uptake enhancers” (Telik, Inc., priority 2000, dated 2002)

What was measured:
3T3 L1 fibroblasts = assay: Glucose transport activity (14C-2-deoxy-D-glucose uptake); type: cell-based; details: concentration producing increase in glucose transport that is 50% of the response of 100 nM insulin (5.6 nM insulin as lower bound), tested 1 μM to 56 μM
Method: 3T3 L1 fibroblasts (ATCC) were grown in Dulbecco's modified Eagle's medium (DMEM) with 10% fetal bovine serum (FBS). The cells were plated at a density of 3×10^4 cells/well in 24-well plates. Two days after confluence was reached, the cells were treated for 3 days with 0.5 mM isobutylmethylxanthine (IBMX), 1 μM dexamethasone, and 1.7 μM insulin. The cells were then transferred to DMEM with 1.7 μM insulin for 2 more days. The cells were maintained in DMEM with 10% FBS for an additional 4 days. Finally, the cells were serum-starved overnight in 0. 1% bovine serum albumin (BSA) in DMEM. The following day, the medium was replaced with 150 mM NaCl, 1.7 mM KCl, 0.9 mM CaCl2, K2HPO4 (pH 7.4), to which was added either the experimental compound or its vehicle (DMSO). Insulin or its vehicle (0.01% BSA) was diluted in the assay buffer (containing test compound or vehicle, respectively) to a final concentration of 5.6 nM. After incubation for 30 min at 37° C., 5 μCi/ml ^14C-2-deoxy-D-glucose was added, and the incubation was continued for an additional 30 min at 37° C. The cells were then washed 3 times with ice-cold PBS/20 mM glucose and lysed in 250 μl of lysis buffer (50 mM HEPES pH 7.6, 1% Triton X-100) for 30 min at room temperature. Radioactivity in the lysate was quantified by scintillation counting.
Once ^14C-2-deoxy-D-glucose is transported into the cell, it is not released. Glucose transport is, therefore, proportional to the amount of radioactivity in the lysate. […] The concentration of compound necessary to produce an increase in glucose transport that is 50% of the response of 100 nM insulin (using 5.6 nM insulin as the lower bound) was calculated as the EC50 (effective concentration).

[1] = target: T1, complete β-kinase domain of the human insulin receptor (CKD) (Homo sapiens, UniProt P06213); assay: 32P-CKD autophosphorylation assay; type: biochemical; details: compound at 10 μM, phosphorylation of CKD expressed as % of the vehicle level; for activity at 10 µM: 10 min, read-out: Activity (% vs. control)
T1 construct: The complete β-kinase domain of the human insulin receptor (CKD); made in house
Method: The complete β-kinase domain of the human insulin receptor (CKD) was expressed in, and purified from, baculovirus. CKD (4.0 μg/ml), in a solution of 29 mM HEPES (pH 7.6), 0.05% Triton X-100, 10 mM MgCl2, 2 mM MnCl2 (50 μl final volume), is combined with 50 μM ATP, and 5 μCi ^32P-ATP (3000 Ci/mmol).

T1 sequence (P06213 1023-1298 limits assumed): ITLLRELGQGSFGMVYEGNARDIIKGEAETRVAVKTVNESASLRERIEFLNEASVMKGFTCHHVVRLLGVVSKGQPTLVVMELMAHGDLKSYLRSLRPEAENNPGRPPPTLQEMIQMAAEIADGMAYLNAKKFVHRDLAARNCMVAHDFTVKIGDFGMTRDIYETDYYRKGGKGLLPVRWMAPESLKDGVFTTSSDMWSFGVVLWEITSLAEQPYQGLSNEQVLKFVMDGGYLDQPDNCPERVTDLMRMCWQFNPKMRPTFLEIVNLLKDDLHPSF

| Compound | EC50 (3T3 L1 fibroblasts) [µM] | Activity (% vs. control) [1] [%] | EC50 (3T3 L1 fibroblasts; Mus musculus, 3T3-L1) [µM] | activity at 10 µM [1] [%] |
| --- | --- | --- | --- | --- |
| 5-((1E)-2-phenylvinyl)-2-({4-[(4-carboxyphenyl)-N-methylcarbonylamnino]phenyl}-N-methylcarbonylamino)benzoic acid [Compound 20] | 109 | 112 | – | – |
| CNc1ccc(C(=O)Nc2ccc(/C=C/c3ccc(C(=O)O)cc3)cc2C(=O)O)cc1 [Compound 23, 5-[(1E)-2-(4-carboxyphenyl)vinyl]-2-{[4-(methylamino)phenyl]carbonylamino}-benzoic acid] | – | – | 98 | 112 |
| O=C(O)Cc1ccc(/C=C/c2ccc(NC(=O)c3ccccc3C(=O)O)cc2)cc1 [Compound 24, 2-[N-(4-{(1E)-2-[4-(carboxymethyl)phenyl]vinyl}phenyl)carbamoyl]benzoic acid] | – | – | 414 | 126 |
